According to patent publication US9695155B2, “Herbicidal substituted pyrimidinyloxy benzene compounds” (E. I. DU PONT DE NEMOURS AND COMPANY, priority 2013, dated 2017):

Legend:
galium = assay: Test C postemergence; format: in vivo, Galium aparine; conditions: for Galium plant response rating / Plant response rating, Galium: scale 0 to 100 (0 no effect, 100 complete control)
Excerpt: (§1) Seeds of plant species selected from blackgrass (Alopecurus myosuroides), Italian ryegrass (Lolium multiflorum), wheat, winter (winter wheat, Triticum aestivum), galium (catchweed bedstraw, Galium aparine), corn (Zea mays), large (Lg) crabgrass (Digitaria sanguinalis), giant foxtail (Setaria faberii), johnsongrass (Sorghum halepense), lambsquarters (Chenopodium album), morningglory (Ipomoea coccinea), yellow nutsedge (Cyperus esculentus), pigweed (Amaranthus retroflexus), ragweed (common ragweed, Ambrosia elatior), soybean (Glycine max), barnyardgrass (Echinochloa crus-galli), oilseed rape (Brassica napus), waterhemp (common waterhemp, Amaranthus rudis), kochia (Kochia scoparia), wild oat (Avena fatua), surinam grass (Brachiaria decumbens), foxtail, green (green foxtail, Setaria viridis), goosegrass (Eleusine indica), bromegrass, downy (downy bromegrass, Bromus tectorum), nightshade (eastern black nightshade, Solanum ptycanthum), cocklebur (common cocklebur, Xanthium strumarium), cupgrass, woolly (woolly cupgrass, Eriochloa villosa), bermudagrass (Cynodon dactylon), sunflower, (common oilseed sunflower, Helianthus annuus), Russian thistle (Salsola kali), and velvetleaf (Abutilon theophrasti) were planted into a blend of loam soil and sand and treated preemergence with test chemicals formulated in a non-phytotoxic solvent mixture which included a surfactant.
(§2) At the same time, plants selected from these crop and weed species and also barley, winter (winter barley, Hordeum vulgare), windgrass (Apera spica-venti), chickweed (common chickweed, Stellaria media), deadnettle (henbit deadnettle, Lamium amplexicaule), and canarygrass (littleseed canarygrass, Phalaris minor) were planted in pots containing Redi-Earth® planting medium (Scotts Company, 14111 Scottslawn Road, Marysville, Ohio 43041) comprising spaghnum peat moss, vermiculite, wetting agent and starter nutrients and treated with postemergence applications of test chemicals formulated in the same manner. Plants ranged in height from 2 to 18 cm (1- to 4-leaf stage) for postemergence treatments. Treated plants and controls were maintained in a greenhouse for 13 to 15 days, after which time all species were compared to controls and visually evaluated. Plant response ratings, summarized in Table C, are based on a scale of 0 to 100 where 0 is no effect and 100 is complete control. A dash (-) response means no test result.

soybean = assay: Test C postemergence; format: in vivo, Glycine max; conditions: for Plant response rating, Soybean: scale 0 to 100 (0 no effect, 100 complete control)
Method in brief: (§3)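 Visual injury score versus untreated controls, 0 = no effect, 100 = complete control, taken 13 to 15 days after treatment in the greenhouse. Pre-emergence pots held loam/sand; post-emergence plants grew in sphagnum peat/vermiculite mix and were sprayed at the 1- to 4-leaf stage.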

sedge, umbrella = assay: Test B flooded paddy test; format: in vivo, Cyperus difformis; conditions: Flood, 250 g ai/ha; 0 to 100 scale where 0 is no effect and 100 is complete control
Method in brief: (§4)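 2-leaf stage plants; pots flooded to 3 cm, compound added to paddy water, depth maintained. Greenhouse 13–15 d. Visual rating vs untreated controls, 0 (no effect) to 100 (complete control); dash = no result.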

giant foxtail [1] = assay: Test A postemergence; format: in vivo, Setaria faberii
Method in brief: (§5)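 Compounds in non-phytotoxic solvent with surfactant applied as soil spray preemergence, or postemergence to plants 2-10 cm at one- to two-leaf stage, in loam/sand. After approximately 10 days in greenhouse, injury rated visually versus untreated controls, 0 (no effect) to 100 (complete control).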

pigweed = assay: Test A postemergence; format: in vivo, Amaranthus retroflexus
Method in brief: as §5

chickweed = assay: Test C postemergence; format: in vivo, Stellaria media; conditions: for Chickweed plant response rating / Plant response rating, Chickweed: scale 0 to 100 (0 no effect, 100 complete control)
Method in brief: as §3

barnyardgrass = assay: Test B flooded paddy test; format: in vivo, Echinochloa crus-galli; conditions: Flood, 250 g ai/ha; 0 to 100 scale where 0 is no effect and 100 is complete control
Method in brief: as §4

lambsquarters = assay: Test C postemergence; format: in vivo, Chenopodium album; conditions: for Plant response rating, Lambsquarters: scale 0 to 100 (0 no effect, 100 complete control)
Excerpt: as §1, §2

waterhemp = assay: Test C postemergence; format: in vivo, Amaranthus rudis; conditions: for Plant response rating, Waterhemp: scale 0 to 100 (0 no effect, 100 complete control)
Excerpt: as §1, §2

rice = assay: Test B flooded paddy test; format: in vivo, Oryza sativa; conditions: Flood, 250 g ai/ha; 0 to 100 scale where 0 is no effect and 100 is complete control
Method in brief: as §4

giant foxtail [2] = assay: Test A preemergence; format: in vivo, Setaria faberii; conditions: for Plant response rating, Foxtail, Giant: 125 g ai/ha
Method in brief: as §5

Italian ryegrass = assay: Test C postemergence; format: in vivo, Lolium multiflorum; conditions: for Plant response rating, Ryegrass, Italian: scale 0 to 100 (0 no effect, 100 complete control)
Excerpt: as §1, §2

oilseed rape = assay: Test C postemergence; format: in vivo, Brassica napus; conditions: for Plant response rating, Oilseed Rape: scale 0 to 100 (0 no effect, 100 complete control)
Excerpt: as §1, §2

[3] = 16 g ai/ha, postemergence, visual rating, 13 to 15 days
[4] = Postemergence, 31 g ai/ha, 13 to 15 days
[5] = 125 g ai/ha, 0 to 100 scale where 0 is no effect and 100 is complete control
[6] = 500 g ai/ha, 0 to 100 scale where 0 is no effect and 100 is complete control
[7] = 0 to 100 scale where 0 is no effect and 100 is complete control
[8] = 500 g ai/ha, 0 to 100 scale, 0 no effect, 100 complete control, approx. 10 days
[9] = 16 g ai/ha, postemergence, 0 is no effect, 100 is complete control
[10] = 125 g ai/ha, postemergence, visual rating
[11] = 1000 g ai/ha, 0 to 100 scale, 0 no effect, 100 complete control

Row | SMILES | Galium plant response rating (galium; [3]) | Plant response rating (0 to 100), Galium (galium; 125 g ai/ha, postemergence) | Plant response rating, Galium (galium; [4]) | Plant response rating, Galium (galium; Postemergence, 62 g ai/ha) | Plant response rating (0 to 100), Soybean (soybean; 125 g ai/ha, postemergence) | Plant response rating, Soybean (soybean; [4]) | Plant response rating, Soybean (soybean; Postemergence, 62 g ai/ha) | Plant response rating, Sedge, Umbrella (sedge, umbrella) | Plant response rating, Foxtail, Giant (giant foxtail [1]; [5]) | Plant response rating, Foxtail, Giant (giant foxtail [1]; [6]) | Plant response rating, Pigweed (pigweed; [5]) | Plant response rating, Pigweed (pigweed; [6]) | Plant response rating, Chickweed (chickweed; Postemergence, 62 g ai/ha) | Plant response rating, Barnyardgrass (barnyardgrass) | Plant response rating, Lambsquarters (lambsquarters; Postemergence, 62 g ai/ha) | Plant response rating, Waterhemp (waterhemp; Postemergence, 62 g ai/ha) | Plant response rating, Rice (rice) | Plant response rating, Foxtail, Giant (giant foxtail [2]; [7]) | Plant response rating, Ryegrass, Italian (Italian ryegrass; Postemergence, 62 g ai/ha) | Plant response rating, Oilseed Rape (oilseed rape; Postemergence, 62 g ai/ha) | further results
1 | CC(C)c1cnn(-c2c(C#N)cccc2Oc2ncc(Cl)cn2)c1 [Compound 85] | 40 | 75 | 50 | 50 | 90 | 75 | 65 | 30 | 70 | 90 | 80 | 100 | 50 | 0 | 75 | 70 | 10 | 100 | 0 | 30 | Chickweed plant response rating (chickweed; [3]): 5; Plant response rating (0 to 100), Chickweed (chickweed; 125 g ai/ha, postemergence): 40; Plant response rating, Chickweed (chickweed; [4]): 40; Plant response rating (0 to 100), Lambsquarters (lambsquarters; 125 g ai/ha, postemergence): 70; Plant response rating, Lambsquarters (lambsquarters; [4]): 55; Plant response rating (0 to 100), Waterhemp (waterhemp; 125 g ai/ha, postemergence): 60; Plant response rating, Waterhemp (waterhemp; [4]): 55; Foxtail, Giant plant response rating (giant foxtail [2]; [8]): 100; Plant response rating (0 to 100), Ryegrass, Italian (Italian ryegrass; 125 g ai/ha, postemergence): 5; Plant response rating, Ryegrass, Italian (Italian ryegrass; [4]): 0; Plant response rating (0 to 100), Oilseed Rape (oilseed rape; 125 g ai/ha, postemergence): 15; Plant response rating, Oilseed Rape (oilseed rape; [4]): 5
2 | Cc1cnc(Oc2cccc(C#N)c2-n2cc(C#N)cn2)nc1 [Compound 90] | 70 | 85 | 55 | 65 | 60 | 65 | 75 | 40 | 80 | 90 | 100 | 100 | 15 | 0 | 60 | 65 | 0 | 90 | 5 | 50 | Chickweed plant response rating (chickweed; [3]): 5; Plant response rating (0 to 100), Chickweed (chickweed; 125 g ai/ha, postemergence): 50; Plant response rating, Chickweed (chickweed; [4]): 30; Plant response rating (0 to 100), Lambsquarters (lambsquarters; 125 g ai/ha, postemergence): 60; Plant response rating, Lambsquarters (lambsquarters; [4]): 75; Plant response rating (0 to 100), Waterhemp (waterhemp; 125 g ai/ha, postemergence): 75; Plant response rating, Waterhemp (waterhemp; [4]): 35; Foxtail, Giant plant response rating (giant foxtail [2]; [8]): 100; Plant response rating (0 to 100), Ryegrass, Italian (Italian ryegrass; 125 g ai/ha, postemergence): 0; Plant response rating, Ryegrass, Italian (Italian ryegrass; [4]): 5; Plant response rating (0 to 100), Oilseed Rape (oilseed rape; 125 g ai/ha, postemergence): 40; Plant response rating, Oilseed Rape (oilseed rape; [4]): 5
3 | Clc1cnc(Oc2cccc(Br)c2-n2cc(I)nn2)nc1 [Compound 117] | – | – | – | 70 | – | – | 50 | 20 | 90 | 90 | – | 100 | 70 | 0 | 50 | 85 | 0 | 90 | 0 | 60 | Plant response rating (0 to 100), Galium (galium; [9]): 80; Plant response rating, Galium (galium; [10]): 80; Plant response rating (0 to 100), Soybean (soybean; [9]): 35; Plant response rating, Soybean (soybean; [10]): 50; Plant response rating (0 to 100), Chickweed (chickweed; [9]): 50; Plant response rating, Chickweed (chickweed; [10]): 80; Plant response rating (0 to 100), Lambsquarters (lambsquarters; [9]): 45; Plant response rating, Lambsquarters (lambsquarters; [10]): 75; Plant response rating (0 to 100), Waterhemp (waterhemp; [9]): 60; Plant response rating, Waterhemp (waterhemp; [10]): 90; Foxtail, Giant plant response rating (giant foxtail [2]; [6]): 100; Plant response rating (0 to 100), Ryegrass, Italian (Italian ryegrass; [9]): 0; Plant response rating, Ryegrass, Italian (Italian ryegrass; [10]): 5; Plant response rating (0 to 100), Oilseed Rape (oilseed rape; [9]): 25; Plant response rating, Oilseed Rape (oilseed rape; [10]): 70
4 | FCc1cn(-c2ccccc2Oc2ncc(Cl)cn2)nn1 [Compound 123] | – | – | – | 85 | – | – | 65 | 40 | – | – | – | – | 50 | 35 | 85 | 80 | 0 | – | 0 | 60 | Plant response rating (0 to 100), Galium (galium; [9]): 40; Plant response rating, Galium (galium; [10]): 90; Plant response rating (0 to 100), Soybean (soybean; [9]): 45; Plant response rating, Soybean (soybean; [10]): 90; Plant response rating, Foxtail, Giant (giant foxtail [1]; [11]): 90; Plant response rating, Pigweed (pigweed; [11]): 100; Plant response rating (0 to 100), Chickweed (chickweed; [9]): 5; Plant response rating, Chickweed (chickweed; [10]): 60; Plant response rating (0 to 100), Lambsquarters (lambsquarters; [9]): 60; Plant response rating, Lambsquarters (lambsquarters; [10]): 85; Plant response rating (0 to 100), Waterhemp (waterhemp; [9]): 25; Plant response rating, Waterhemp (waterhemp; [10]): 80; Foxtail, Giant plant response rating (giant foxtail [2]; 1000 g ai/ha, 0 to 100 scale, 0 no effect, 100 complete control, approx. 10 days): 100; Plant response rating (0 to 100), Ryegrass, Italian (Italian ryegrass; [9]): 0; Plant response rating, Ryegrass, Italian (Italian ryegrass; [10]): 0; Plant response rating (0 to 100), Oilseed Rape (oilseed rape; [9]): 30; Plant response rating, Oilseed Rape (oilseed rape; [10]): 70
